The values below come from patent US9981938B2, “Quaternary ammonium alkyl esters as stable prodrugs” (ALLERGAN, INC., priority 2014, dated 2018).

The nature of this data set: Stability of compounds in aqueous solution. The format is physicochemical. The following applies: compound dissolved in aqueous solution, in %; for stability, 25° C./ 7 days: maintained at 25° C. for 7 days; for stability, 25° C./ 14 days: maintained at 25° C. for 14 days; for stability, 40° C./ 7 days: maintained at 40° C. for 7 days. On the procedure:
In some embodiments the stability of the compound is such that, when stored in an aqueous solution at 25° C. for 7 days or 14 days, at least about 70%, at least about 80%, at least about 90%, at least about 95%, at least about 97%, at least about 99% of the original compound, and up to about 100% of the original compound remains in the solution. In some embodiments, the stability of the compound is such that at least about 70%, at least about 80%, at least about 90%, at least about 95%, at least about 97%, at least about 99% of the original compound, and up to about 100% of original compound remains after 7 days of storage in an aqueous solution at 40° C.
The following Table 1 depicts various embodiments indicating the stability of compounds depicted by their respective structures in the table. The compounds were dissolved in an aqueous solution, and maintained at the indicated temperatures, for 7 to 14 days, as indicated.

Consider `CN(C)Cc1ccc(OC(=O)c2ccc(CCC[C@@H]3[C@@H](CCc4cc(Cl)cc(Cl)c4)[C@H](O)C[C@H]3Cl)s2)cc1` [Compound 2, 5-(3-{(1R, 2R, 3R, 5R)-5-Chloro-2-[2-(3,5-dichlorophenyl)ethyl]-3-hydroxycyclopentyl}-propyl)thiophene-2-carboxylic acid 4-dimethylaminomethyl phenyl ester], for which the “stability, 25° C./ 7 days” value was 96.4; the “stability, 25° C./ 14 days” value is 95.2; the “stability, 40° C./ 7 days” value is 78.0.

In the case of `O=C(Oc1ccc(CN2CCOCC2)cc1)c1ccc(CCC[C@@H]2[C@@H](CCc3cc(Cl)cc(Cl)c3)[C@H](O)C[C@H]2Cl)s1` [Compound 3, 5-(3-{(1R, 2R, 3R, 5R)-5-Chloro-2-[2-(3,5-dichlorophenyl)ethyl]-3-hydroxycyclopentyl}-propyl)thiophene-2-carboxylic acid 4-morpholin-4-ylmethyl phenyl ester], the “stability, 25° C./ 7 days” value worked out at 97.3; the “stability, 25° C./ 14 days” value is on record as 97.3; the “stability, 40° C./ 7 days” value stood at 91.7.

`CN(C)c1ccc(OC(=O)c2ccc(CCC[C@@H]3[C@@H](CCc4cc(Cl)cc(Cl)c4)[C@H](O)C[C@H]3Cl)s2)cc1` [Compound 4, 5-(3-{(1R, 2R, 3R, 5R)-5-Chloro-2-[2-(3,5-dichlorophenyl)ethyl]-3-hydroxycyclopentyl}-propyl)thiophene-2-carboxylic acid 4-dimethylaminophenyl ester]: the “stability, 25° C./ 7 days” value is recorded as 98.7; the “stability, 25° C./ 14 days” value amounted to 100.2; the “stability, 40° C./ 7 days” value is 96.0.

In the case of `CC(CCN1CCOCC1)OC(=O)c1ccc(CCC[C@@H]2[C@@H](CCc3cc(Cl)cc(Cl)c3)[C@H](O)C[C@H]2Cl)s1` (stereo partly drawn) [Compound 5, 5-(3-{(1R, 2R, 3R, 5R)-5-Chloro-2-[2-(3,5-dichlorophenyl)ethyl]-3-hydroxycyclopentyl}propyl)thiophene-2-carboxylic acid, 1-methyl-3-morpholin-4-yl propyl ester], the “stability, 25° C./ 7 days” value worked out at 98.5; the “stability, 25° C./ 14 days” value is recorded as 95.4; the “stability, 40° C./ 7 days” value is given as 89.3.

`O=C(OCCCN1CCOCC1)c1ccc(CCC[C@@H]2[C@@H](CCc3cc(Cl)cc(Cl)c3)[C@H](O)C[C@H]2Cl)s1` [Compound 6, 5-(3-{(1R, 2R, 3R, 5R)-5-Chloro-2-[2-(3,5-dichlorophenyl)ethyl]-3-hydroxycyclopentyl}propyl)thiophene-2-carboxylic acid, 3-morpholin-4-yl propyl ester]: the “stability, 25° C./ 7 days” value is 103.0; the “stability, 25° C./ 14 days” value amounted to 102.9; the “stability, 40° C./ 7 days” value stood at 98.0.

In the case of `CC(CN(C)C)OC(=O)c1ccc(CCC[C@@H]2[C@@H](CCc3cc(Cl)cc(Cl)c3)[C@H](O)C[C@H]2Cl)s1` (stereo partly drawn) [Compound 7, 5-(3-{(1R, 2R, 3R, 5R)-5-Chloro-2-[2-(3,5-dichlorophenyl)ethyl]-3-hydroxycyclopentyl}propyl)thiophene-2-carboxylic acid, 2-dimethylamino-1-methyl ethyl ester], the “stability, 25° C./ 7 days” value amounted to 94.3; the “stability, 25° C./ 14 days” value is 78.5; the “stability, 40° C./ 7 days” value is listed as 70.3.

Take `CCN(CC)CCOC(=O)c1ccc(CCC[C@@H]2[C@@H](CCc3cc(Cl)cc(Cl)c3)[C@H](O)C[C@H]2Cl)s1` [Compound 8, 5-(3-{(1R, 2R, 3R, 5R)-5-Chloro-2-[2-(3,5-dichlorophenyl)ethyl]-3-hydroxycyclopentyl}-propyl)thiophene-2-carboxylic acid, 2-diethylaminoethyl ester]: the “stability, 25° C./ 7 days” value is given as 95.8; the “stability, 25° C./ 14 days” value was 84.6; the “stability, 40° C./ 7 days” value stood at 79.1.

With `CC[N+](C)(CC)CCCOC(=O)c1ccc(CCC[C@@H]2[C@@H](CCc3cc(Cl)cc(Cl)c3)[C@H](O)C[C@H]2Cl)s1` [Compound 9, {3-[5-(3-{(1R, 2R, 3R, 5R)-5-Chloro-2-[2-(3,5-dichlorophenyl)ethyl]-3-hydroxycyclopentyl}-propyl)thiophene-2-carbonyloxy]propyl}diethyl methyl ammonium iodide], the “stability, 25° C./ 7 days” value came to 100.5; the “stability, 25° C./ 14 days” value was found to be 101.1; the “stability, 40° C./ 7 days” value is listed as 101.8.
